Values quoted from earlier work as cited in US11554003B2, “Filtration devices and methods related thereto” (The Regents of the University of California, priority 2015, dated 2023).

Settings: IAC; regardless of infused dose

first pass hepatic clearance: 50-70%
Structure (SMILES): COc1cccc2c1C(=O)c1c(O)c3c(c(O)c1C2=O)C[C@@](O)(C(=O)CO)C[C@@H]3O[C@H]1C[C@H](N)[C@H](O)[C@H](C)O1 [Dox, doxorubicin]
